Common to all, as to assay type: in vitro ADME
The target in data set [1] is T1, UGT1A4 (Homo sapiens, UniProt P22310).
T1 sequence (P22310 29-534): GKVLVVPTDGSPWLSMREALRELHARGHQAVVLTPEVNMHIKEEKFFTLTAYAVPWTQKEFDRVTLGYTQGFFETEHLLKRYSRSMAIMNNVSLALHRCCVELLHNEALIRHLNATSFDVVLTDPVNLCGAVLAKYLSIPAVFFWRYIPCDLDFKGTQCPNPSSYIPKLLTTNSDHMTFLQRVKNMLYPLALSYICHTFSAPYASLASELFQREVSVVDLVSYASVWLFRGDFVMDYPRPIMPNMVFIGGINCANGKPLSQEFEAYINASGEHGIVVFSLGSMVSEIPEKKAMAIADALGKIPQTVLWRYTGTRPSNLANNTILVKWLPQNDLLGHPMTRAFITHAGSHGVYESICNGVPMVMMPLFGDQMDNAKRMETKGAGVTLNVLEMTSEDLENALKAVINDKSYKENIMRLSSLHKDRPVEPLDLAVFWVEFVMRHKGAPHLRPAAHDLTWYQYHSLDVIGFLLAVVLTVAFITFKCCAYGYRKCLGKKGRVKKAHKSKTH
Description: M1 formation from molidustat by recombinant UGT1A4. The note with it: 1 and 10 µmol L^−1.

Data set [2] concerns the target T2, UGT2B4 (Homo sapiens, UniProt P06133).
T2 sequence (P06133 24-528): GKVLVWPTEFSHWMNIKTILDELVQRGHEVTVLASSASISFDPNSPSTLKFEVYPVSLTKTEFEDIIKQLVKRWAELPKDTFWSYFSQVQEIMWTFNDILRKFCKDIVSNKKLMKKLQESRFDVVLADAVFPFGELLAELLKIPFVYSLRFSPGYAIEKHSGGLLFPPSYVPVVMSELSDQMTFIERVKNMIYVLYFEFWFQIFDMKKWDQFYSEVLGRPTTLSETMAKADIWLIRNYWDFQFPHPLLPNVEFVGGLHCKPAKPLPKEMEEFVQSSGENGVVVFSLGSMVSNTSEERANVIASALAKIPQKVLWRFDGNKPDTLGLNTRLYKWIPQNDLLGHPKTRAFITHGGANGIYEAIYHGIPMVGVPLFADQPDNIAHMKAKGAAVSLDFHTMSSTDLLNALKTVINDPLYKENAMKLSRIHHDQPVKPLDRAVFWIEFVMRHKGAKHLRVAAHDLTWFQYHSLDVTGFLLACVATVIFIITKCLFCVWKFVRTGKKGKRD
Description: M1 formation from molidustat by recombinant UGT2B4. The note with it: 1 and 10 µmol L^−1.

Data set [3] deals with T3, UGT2B17 (Homo sapiens, UniProt O75795).
T3 sequence (O75795 24-530): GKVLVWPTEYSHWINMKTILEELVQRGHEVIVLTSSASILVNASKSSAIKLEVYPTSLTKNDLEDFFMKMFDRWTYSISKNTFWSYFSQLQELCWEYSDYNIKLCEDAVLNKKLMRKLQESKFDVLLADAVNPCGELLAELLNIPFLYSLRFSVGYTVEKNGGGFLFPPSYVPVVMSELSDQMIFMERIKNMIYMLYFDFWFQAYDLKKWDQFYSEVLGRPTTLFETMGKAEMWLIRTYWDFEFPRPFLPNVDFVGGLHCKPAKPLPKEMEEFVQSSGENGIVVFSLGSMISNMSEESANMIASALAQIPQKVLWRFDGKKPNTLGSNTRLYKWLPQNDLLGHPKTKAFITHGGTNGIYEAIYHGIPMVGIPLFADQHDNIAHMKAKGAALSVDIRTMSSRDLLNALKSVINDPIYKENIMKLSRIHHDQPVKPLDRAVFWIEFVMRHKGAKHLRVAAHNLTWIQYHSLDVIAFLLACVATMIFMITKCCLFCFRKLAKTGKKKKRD
Briefly: M1 formation from molidustat by recombinant UGT2B17. The note with it: 1 and 10 µmol L^−1.

Data set [4] has as its system UGT-mediated glucuronidation of molidustat. Description: Enzyme kinetics of molidustat glucuronidation in pooled human liver microsomes. The note with it: human, pooled human liver microsomes, pH 7.4. In general terms: Microsomes from liver hold many membrane-bound enzymes, among them those of drug oxidation.
Data set [5] concerns pooled human liver microsomes. The data set is described as above. Conditions: human liver microsomes, Hill equation.

Take `O=c1c(-n2ccnn2)c[nH]n1-c1cc(N2CCOCC2)ncn1` [Molidustat]: the “activity for glucuronidation of molidustat” value in data set [1], in data set [2] and in data set [3] was “lacked measurable activity” each time. For the same compound, the Km – broadly, the concentration of substrate that gives half-maximal velocity – in data set [4] worked out at 90 µM. Also, in data set [5], the “estimated S50” value is 90 µmol/L.

These data come from paper PMC7983974 (Basic & Clinical Pharmacology & Toxicology, 2020).
